Experimental data published in article PMC12643509, “High-throughput screens identify genotype-specific therapeutics for channelopathies” (JCI Insight, 2025).
Values joined by “and” are separate entries in the source; they are usually repeats but may differ in a detail not shown here. Equal values may be shown once.

Columns and labels:
[1] = target: WT Kv11.1 (Homo sapiens, UniProt Q12809); test: Whole-cell patch-clamp electrophysiology, drug in bath solution, WT; type: cell-based; design: expressed in transfected cells; Activation tail currents / Steady-state currents / Time constants of activation (τ): unit not given here; conditions: for Figure 5E value per cell vs Voltage (mV) / Figure 5F value per cell vs Voltage (mV) / Figure 4D value per cell vs Voltage (mV): individual replicates; for Inactivation time constant / Fast deactivation time constant / Slow deactivation time constant: Evacetrapib (15 µmol/L); for Peak tail current: Evacetrapib 15 µmol/L
Text: Peak stea dy-sta te current was
Tail current was fit with a […]

[2] = cited from earlier work
[3] = humans; cited from earlier work

WT Kv11.1, sequence (Q12809 whole entry): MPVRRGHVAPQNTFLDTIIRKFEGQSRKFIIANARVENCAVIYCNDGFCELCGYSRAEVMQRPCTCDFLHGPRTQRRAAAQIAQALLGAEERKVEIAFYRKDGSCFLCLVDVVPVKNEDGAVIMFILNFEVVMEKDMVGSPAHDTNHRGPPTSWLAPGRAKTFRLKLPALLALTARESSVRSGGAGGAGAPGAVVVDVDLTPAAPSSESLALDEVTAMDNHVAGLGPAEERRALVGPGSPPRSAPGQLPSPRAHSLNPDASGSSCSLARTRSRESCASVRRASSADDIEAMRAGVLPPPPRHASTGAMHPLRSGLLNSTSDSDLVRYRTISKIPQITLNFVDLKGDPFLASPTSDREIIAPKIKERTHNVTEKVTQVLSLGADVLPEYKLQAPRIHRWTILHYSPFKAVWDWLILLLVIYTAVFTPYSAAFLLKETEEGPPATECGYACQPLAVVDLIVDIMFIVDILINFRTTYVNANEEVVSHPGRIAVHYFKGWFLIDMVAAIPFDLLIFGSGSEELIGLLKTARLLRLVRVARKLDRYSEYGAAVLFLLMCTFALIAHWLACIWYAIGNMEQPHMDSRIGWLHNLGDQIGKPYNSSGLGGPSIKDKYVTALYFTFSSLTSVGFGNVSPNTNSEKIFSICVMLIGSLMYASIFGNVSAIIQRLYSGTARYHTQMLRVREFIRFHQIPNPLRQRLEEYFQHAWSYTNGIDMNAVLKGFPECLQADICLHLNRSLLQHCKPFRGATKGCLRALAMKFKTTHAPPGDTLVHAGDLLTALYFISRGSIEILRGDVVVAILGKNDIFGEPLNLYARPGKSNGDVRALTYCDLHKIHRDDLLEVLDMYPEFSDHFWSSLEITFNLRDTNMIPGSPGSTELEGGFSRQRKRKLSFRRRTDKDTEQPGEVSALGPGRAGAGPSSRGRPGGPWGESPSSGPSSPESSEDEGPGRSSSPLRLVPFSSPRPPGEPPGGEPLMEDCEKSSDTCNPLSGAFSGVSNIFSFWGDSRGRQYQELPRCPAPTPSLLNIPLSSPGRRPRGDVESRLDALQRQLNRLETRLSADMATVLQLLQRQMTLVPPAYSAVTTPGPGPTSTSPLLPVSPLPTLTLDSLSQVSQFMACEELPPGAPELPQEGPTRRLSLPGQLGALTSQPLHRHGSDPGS

SMILES: Cc1cc(C)c2c(c1)[C@@H](N(Cc1cc(C(F)(F)F)cc(C(F)(F)F)c1)c1nnn(C)n1)CCCN2C[C@H]1CC[C@H](C(=O)O)CC1 [Evacetrapib, evacetrapib]
- Figure 5E value per cell vs Voltage (mV) ([1]; Voltage -70 mV): 981.118 and 839.618 and 778.428
- Figure 5F value per cell vs Voltage (mV) ([1]; Voltage -70 mV): 5126.65 and 3642.53 and 2594.13
- Figure 4D value per cell vs Voltage (mV) ([1]; Voltage -90 mV): 8.355 and 8.669 and 7.114 and 6.058 and 6.564 and 7.143 and 9.871 and 9.491
- Figure 5E value per cell vs Voltage (mV) ([1]; Voltage -90 mV): 372.839 and 359.851 and 360.592 and 394.825 and 418.114 and 332.621 and 441 and 468.124
- Figure 5F value per cell vs Voltage (mV) ([1]; Voltage -90 mV): 3977.04 and 1576.1 and 1475.11 and 1269.7 and 1679.13 and 1263.86 and 1827.67 and 3682.76
- Figure 4D value per cell vs Voltage (mV) ([1]; Voltage -100 mV): 5.9805 and 6.106 and 5.3207 and 4.4265 and 4.931 and 4.972 and 6.757 and 6.876
- Figure 5E value per cell vs Voltage (mV) ([1]; Voltage -100 mV): 366.452 and 329.996 and 269.807 and 269.273 and 487.907 and 220.859 and 396.726 and 472.93
- Figure 5F value per cell vs Voltage (mV) ([1]; Voltage -100 mV): 2314.55 and 1511.55 and 907.537 and 927.568 and 1874.88 and 839.178 and 1131.37 and 2375.79
- Figure 4D value per cell vs Voltage (mV) ([1]; Voltage -110 mV): 4.757 and 4.592 and 3.934 and 3.367 and 4.027 and 3.635 and 4.594 and 4.969
- Figure 5E value per cell vs Voltage (mV) ([1]; Voltage -110 mV): 253.98 and 258.663 and 186.827 and 175.481 and 304.962 and 138.114 and 283.639 and 296.398
- Figure 5F value per cell vs Voltage (mV) ([1]; Voltage -110 mV): 1302.55 and 1153.11 and 698.663 and 755.178 and 1277.44 and 611.635 and 865.285 and 1384.34
- Figure 4D value per cell vs Voltage (mV) ([1]; Voltage -120 mV): 3.611 and 3.4981 and 2.97 and 2.532 and 3.293 and 2.583 and 3.34 and 3.894
- Figure 5E value per cell vs Voltage (mV) ([1]; Voltage -120 mV): 244.589 and 219.981 and 132.908 and 108.36 and 189.369 and 89.3521 and 190.069 and 167.699
- Figure 5F value per cell vs Voltage (mV) ([1]; Voltage -120 mV): 3324.93 and 1104 and 582.988 and 644.385 and 999.7 and 579.372 and 805.065 and 656.376
- Inactivation time constant ([1]; Voltage step 0, WT): 11.1 ± 0.6 ms
- Inactivation time constant ([1]; Voltage step 10, WT): 8.5 ± 0.3 ms
- Inactivation time constant ([1]; Voltage step 20, WT): 6.3 ± 0.2 ms
- Inactivation time constant ([1]; Voltage step 30, WT): 4.6 ± 0.2 ms
- Inactivation time constant ([1]; Voltage step 40, WT): 3.4 ± 0.2 ms
- Inactivation time constant ([1]; Voltage step 50, WT): 2.6 ± 0.2 ms
- Inactivation time constant ([1]; Voltage step 60, WT): 2.1 ± 0.1 ms
- Inactivation time constant ([1]; Voltage step 70, WT): 1.6 ± 0.1 ms
- Peak tail current ([1]; Voltage step (mV) 0, WT, mean±SD): 66.0±31.5 pA/pF
- Peak tail current ([1]; Voltage step (mV) 10, WT, mean±SD): 53.8±28.6 pA/pF
- Peak tail current ([1]; Voltage step (mV) 20, WT, mean±SD): 43.6±25.2 pA/pF
- Peak tail current ([1]; Voltage step (mV) 30, WT, mean±SD): 34.5±20.7 pA/pF
- Peak tail current ([1]; Voltage step (mV) 40, WT, mean±SD): 28.0±16.9 pA/pF
- Peak tail current ([1]; Voltage step (mV) -10, WT, mean±SD): 78.0±33.4 pA/pF
- Peak tail current ([1]; Voltage step (mV) -20, WT, mean±SD): 89.2±35.1 pA/pF
- Peak tail current ([1]; Voltage step (mV) -30, WT, mean±SD): 95.9±34.9 pA/pF
- Peak tail current ([1]; Voltage step (mV) -40, WT, mean±SD): 95.8±33.5 pA/pF
- Peak tail current ([1]; Voltage step (mV) -50, WT, mean±SD): 86.7±30.0 pA/pF
- Peak tail current ([1]; Voltage step (mV) -60, WT, mean±SD): 68.2±25.6 pA/pF
- Peak tail current ([1]; Voltage step (mV) -70, WT, mean±SD): 41.5±21.4 pA/pF
- Peak tail current ([1]; Voltage step (mV) -80, WT, mean±SD): 7.2±20.3 pA/pF
- Peak tail current ([1]; Voltage step (mV) -90, WT, mean±SD): -32.8±24.4 pA/pF
- Peak tail current ([1]; Voltage step (mV) -100, WT, mean±SD): -76.7±33.7 pA/pF
- Peak tail current ([1]; Voltage step (mV) -110, WT, mean±SD): -125.2±46.2 pA/pF
- Peak tail current ([1]; Voltage step (mV) -120, WT, mean±SD): -176.7±61.8 pA/pF
- Inactivation time constant ([1]; Voltage step -10, WT): 13.6 ± 0.7 ms
- Inactivation time constant ([1]; Voltage step -20, WT): 15.5 ± 0.9 ms
- Fast deactivation time constant ([1]; Voltage step -60, WT): 801.3 ± 344.8 ms
- Slow deactivation time constant ([1]; Voltage step -60, WT): 6986.4 ± 2967.3 ms
- Fast deactivation time constant ([1]; Voltage step -70, WT): 866.4 ± 104.0 ms
- Slow deactivation time constant ([1]; Voltage step -70, WT): 3787.8 ± 1272.5 ms
- Fast deactivation time constant ([1]; Voltage step -90, WT): 393.5 ± 46.0 ms
- Slow deactivation time constant ([1]; Voltage step -90, WT): 2093.9 ± 1091.1 ms
- Fast deactivation time constant ([1]; Voltage step -100, WT): 351.7 ± 97.5 ms
- Slow deactivation time constant ([1]; Voltage step -100, WT): 1485.3 ± 634.8 ms
- Fast deactivation time constant ([1]; Voltage step -110, WT): 237.3 ± 62.3 ms
- Slow deactivation time constant ([1]; Voltage step -110, WT): 1006.0 ± 306.8 ms
- Fast deactivation time constant ([1]; Voltage step -120, WT): 167.8 ± 54.1 ms
- Slow deactivation time constant ([1]; Voltage step -120, WT): 1087.1 ± 925.0 ms
- rate of activation ([1]; WT): decelerated the rate of activation
- rate of deactivation ([1]; WT): slowed the rate of deactivation
- rate of inactivation ([1]; WT channels): did not affect the rate of inactivation
- recovery from inactivation ([1]; WT channels): slight delay in the reopening from inactivation
- Time constants of activation (τ) ([1]; WT, evacetrapib 15 μmol/L, individual cells): 764.055 and 877.888 and 1509 and 938.338 and 764.764 and 413.052
- Activation τ ([1]; WT, evacetrapib 15 μmol/L, mean ± SD): 877 ± 360 ms
- Max (voltage dependence of activation) ([1]; WT, mean±SD, N=11): 78.2 ± 26.7 pA/pF
- Slope factor (voltage dependence of activation) ([1]; WT, mean±SD, N=11): 9.0 ± 1.6
- V1/2 (voltage dependence of activation) ([1]; WT, mean±SD, N=11): -4.0 ± 8.4 mV
- WT currents ([1]; whole-cell patch-clamp): increases WT currents
- mean QT interval compared to placebo ([2]; 71 healthy patients, thorough QT study): did not significantly shorten the mean QT interval
- shorter QT interval compared with baseline ([2]; at 12 hours): 7 ms
- peak plasma concentrations [3]: 1.9 to 8.2 µM
